The structures appear in SMILES notation.

Experiment [1] has as its target T1, D(2) dopamine receptor (Bos taurus, UniProt P20288). The experiment is described as follows: Inhibition of [3H]YM-09151-2 binding to bovine retina membrane Dopamine receptor D2, high affinity site.
Experiment [2] deals with T1, D(2) dopamine receptor. In words: Inhibition of [3H]YM-09151-2 binding to bovine retina membrane Dopamine receptor D2, low affinity site.
Another experiment deals with D(1A) dopamine receptor (Bos taurus, UniProt Q95136). In words: Binding affinity against Dopamine receptor D1 like from bovine retina membranes measured using [3H]SCH-23390 radioligand.
D(1A) dopamine receptor, sequence (Q95136 whole entry): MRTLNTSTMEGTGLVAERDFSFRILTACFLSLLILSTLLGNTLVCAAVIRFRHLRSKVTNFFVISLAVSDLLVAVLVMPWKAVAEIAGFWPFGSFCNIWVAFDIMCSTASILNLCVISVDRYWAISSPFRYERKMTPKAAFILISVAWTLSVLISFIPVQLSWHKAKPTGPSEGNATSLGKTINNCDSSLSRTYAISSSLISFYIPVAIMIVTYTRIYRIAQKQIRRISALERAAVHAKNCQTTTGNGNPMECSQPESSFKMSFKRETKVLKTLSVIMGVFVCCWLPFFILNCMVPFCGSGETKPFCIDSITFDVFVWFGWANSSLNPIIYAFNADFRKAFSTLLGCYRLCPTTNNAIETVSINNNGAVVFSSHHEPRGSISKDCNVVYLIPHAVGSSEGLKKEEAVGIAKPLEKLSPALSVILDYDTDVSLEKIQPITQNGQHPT
Experiment [3] concerns the target T1, D(2) dopamine receptor. In words: Tested for binding affinity against Dopamine receptor D2 like from bovine striatum membranes by using [3H]YM-09151-2 radioligand.

T1 sequence (P20288 whole entry): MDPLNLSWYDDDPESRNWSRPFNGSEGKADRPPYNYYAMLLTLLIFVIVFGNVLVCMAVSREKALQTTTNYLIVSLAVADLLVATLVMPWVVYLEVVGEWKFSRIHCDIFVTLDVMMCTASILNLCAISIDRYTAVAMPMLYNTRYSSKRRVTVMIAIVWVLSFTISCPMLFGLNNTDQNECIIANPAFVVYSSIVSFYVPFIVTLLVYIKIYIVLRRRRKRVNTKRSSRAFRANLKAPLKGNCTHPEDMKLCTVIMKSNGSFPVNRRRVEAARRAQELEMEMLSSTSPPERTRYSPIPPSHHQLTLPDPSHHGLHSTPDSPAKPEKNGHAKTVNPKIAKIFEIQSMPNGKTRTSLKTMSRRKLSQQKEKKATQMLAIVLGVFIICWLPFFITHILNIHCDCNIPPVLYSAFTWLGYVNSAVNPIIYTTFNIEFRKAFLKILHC

For the molecule `CCCN1CCCC(c2cc(C)ccc2C)C1` (stereo unspecified), the results for the Ki on D(2) dopamine receptor [1], at D(2) dopamine receptor [2] and at D(1A) dopamine receptor were 0.54 µM, 25 µM and 112 µM, respectively.

On to `CCCN1CCCC(c2c(C)cccc2C)C1` (stereo unspecified), for which the Ki on D(2) dopamine receptor [1] amounted to 0.156 µM; on D(2) dopamine receptor [2] it was 23 µM; at D(1A) dopamine receptor it was 98 µM.

On to `CCCN1CCCC(c2cccc(C)c2C)C1` (stereo unspecified), for which the Ki at D(2) dopamine receptor [3] amounted to 4.9 µM; at D(2) dopamine receptor [1], 0.0753 µM; at D(2) dopamine receptor [2] it was 7.8 µM; at D(1A) dopamine receptor, 60 µM.

For `Cc1cc(C)cc(C2CCCNC2)c1` (stereo unspecified), the Ki at D(2) dopamine receptor [1] is 0.24 µM; at D(2) dopamine receptor [2] it was 24 µM.

For the molecule `CCCN1CCCC(c2cc(C)cc(C)c2)C1` (stereo unspecified), the Ki on D(2) dopamine receptor [3] was 1.3 µM; on D(2) dopamine receptor [1], 0.052 µM; at D(2) dopamine receptor [2], 9.3 µM; at D(1A) dopamine receptor it was 60 µM.

Consider `CCCN1CCCC(c2ccc(C)c(C)c2)C1` (stereo unspecified), for which the inhibition constant Ki turned out to be 4.99 µM at D(2) dopamine receptor [3], 0.0191 µM on D(2) dopamine receptor [1], 8.2 µM at D(2) dopamine receptor [2] and 102 µM at D(1A) dopamine receptor.

As to `CCCN1CCC[C@@H](c2cccc(O)c2)C1` [PRECLAMOL], the figures for the Ki on D(2) dopamine receptor [3], on D(2) dopamine receptor [1] and at D(2) dopamine receptor [2] were 2.1 µM, 0.53 µM and 12 µM, respectively.

For the molecule `Cc1ccc(C2CCCNC2)cc1C` (stereo unspecified), the Ki at D(2) dopamine receptor [1] is 0.14 µM; at D(2) dopamine receptor [2], 19 µM.

On to `CCCN1CCCC(c2ccc(C)cc2C)C1` (stereo unspecified), for which the Ki on D(2) dopamine receptor [1] came out at 0.72 µM; on D(2) dopamine receptor [2], 17 µM; at D(1A) dopamine receptor, 100 µM.

On to `Cc1cccc(C2CCCNC2)c1C` (stereo unspecified), for which the Ki at D(2) dopamine receptor [1] worked out at 0.043 µM; at D(2) dopamine receptor [2] it was 16 µM.

At D(1A) dopamine receptor, `NCCc1ccc(O)c(O)c1` [DOPAMINE] returned a Ki of 4.3 µM.

The values above are taken from ChEMBL document CHEMBL1131416 (J Med Chem, 1998).
